According to patent publication US6281211A, “Substituted semicarbazides and the use thereof” (Euro-Celtique S.A., priority 2000, dated 2001):
Like-named read-outs stand apart in the source and are kept apart here. Each block holds one compound with its values, some of them ahead of it.

Assays:
[1] = test system: maximal electroshock-induced seizures (MES); assay: maximal electroshock-induced seizures (MES) test in mice; type: in vivo; settings: Mus musculus
Method: The compounds of the present invention may be tested for in vivo anticonvulsant activity after iv. po or ip injection using a number of anticonvulsant tests in mice (audiogenic seizure model in DBA-2 mice, pentylenetetrazol-induced seizures in mice, maximum electroshock seizure test (MES)).
The ability of 1-[4-(4-fluorophenoxy)benzyl]semicarbazide to block maximal electroshock-induced seizures (MES) was determined by the following procedure.
Seizures were induced by application of current (50 mA, 60 pulses/sec, 0.8 msec pulse width, 1 sec duration, D.C.) using a Ugo Basile ECT device (model 7801). Mice were restrained by gripping the loose skin on their dorsal surface and saline-coated corneal electrodes were held lightly against the two cornea. […] A tonic seizure was defined as a hindlimb extension in excess of 90 degrees from plane of the body.
1-[4-(4-Fluorophenoxy)benzyl]semicarbazide was administered iv to mice 10 min before the test procedure.

hSkM1 sodium channels = target: T1, hSkM1 sodium channels (Homo sapiens, UniProt P35499); assay: Electrophysiological assay: whole-cell patch-clamp recordings of voltage-gated Na+ currents in HEK-293 cells stably expressing hSkM1; type: cell-based
T1 construct: expressed in transfected cells
T1 sequence (P35499 whole entry): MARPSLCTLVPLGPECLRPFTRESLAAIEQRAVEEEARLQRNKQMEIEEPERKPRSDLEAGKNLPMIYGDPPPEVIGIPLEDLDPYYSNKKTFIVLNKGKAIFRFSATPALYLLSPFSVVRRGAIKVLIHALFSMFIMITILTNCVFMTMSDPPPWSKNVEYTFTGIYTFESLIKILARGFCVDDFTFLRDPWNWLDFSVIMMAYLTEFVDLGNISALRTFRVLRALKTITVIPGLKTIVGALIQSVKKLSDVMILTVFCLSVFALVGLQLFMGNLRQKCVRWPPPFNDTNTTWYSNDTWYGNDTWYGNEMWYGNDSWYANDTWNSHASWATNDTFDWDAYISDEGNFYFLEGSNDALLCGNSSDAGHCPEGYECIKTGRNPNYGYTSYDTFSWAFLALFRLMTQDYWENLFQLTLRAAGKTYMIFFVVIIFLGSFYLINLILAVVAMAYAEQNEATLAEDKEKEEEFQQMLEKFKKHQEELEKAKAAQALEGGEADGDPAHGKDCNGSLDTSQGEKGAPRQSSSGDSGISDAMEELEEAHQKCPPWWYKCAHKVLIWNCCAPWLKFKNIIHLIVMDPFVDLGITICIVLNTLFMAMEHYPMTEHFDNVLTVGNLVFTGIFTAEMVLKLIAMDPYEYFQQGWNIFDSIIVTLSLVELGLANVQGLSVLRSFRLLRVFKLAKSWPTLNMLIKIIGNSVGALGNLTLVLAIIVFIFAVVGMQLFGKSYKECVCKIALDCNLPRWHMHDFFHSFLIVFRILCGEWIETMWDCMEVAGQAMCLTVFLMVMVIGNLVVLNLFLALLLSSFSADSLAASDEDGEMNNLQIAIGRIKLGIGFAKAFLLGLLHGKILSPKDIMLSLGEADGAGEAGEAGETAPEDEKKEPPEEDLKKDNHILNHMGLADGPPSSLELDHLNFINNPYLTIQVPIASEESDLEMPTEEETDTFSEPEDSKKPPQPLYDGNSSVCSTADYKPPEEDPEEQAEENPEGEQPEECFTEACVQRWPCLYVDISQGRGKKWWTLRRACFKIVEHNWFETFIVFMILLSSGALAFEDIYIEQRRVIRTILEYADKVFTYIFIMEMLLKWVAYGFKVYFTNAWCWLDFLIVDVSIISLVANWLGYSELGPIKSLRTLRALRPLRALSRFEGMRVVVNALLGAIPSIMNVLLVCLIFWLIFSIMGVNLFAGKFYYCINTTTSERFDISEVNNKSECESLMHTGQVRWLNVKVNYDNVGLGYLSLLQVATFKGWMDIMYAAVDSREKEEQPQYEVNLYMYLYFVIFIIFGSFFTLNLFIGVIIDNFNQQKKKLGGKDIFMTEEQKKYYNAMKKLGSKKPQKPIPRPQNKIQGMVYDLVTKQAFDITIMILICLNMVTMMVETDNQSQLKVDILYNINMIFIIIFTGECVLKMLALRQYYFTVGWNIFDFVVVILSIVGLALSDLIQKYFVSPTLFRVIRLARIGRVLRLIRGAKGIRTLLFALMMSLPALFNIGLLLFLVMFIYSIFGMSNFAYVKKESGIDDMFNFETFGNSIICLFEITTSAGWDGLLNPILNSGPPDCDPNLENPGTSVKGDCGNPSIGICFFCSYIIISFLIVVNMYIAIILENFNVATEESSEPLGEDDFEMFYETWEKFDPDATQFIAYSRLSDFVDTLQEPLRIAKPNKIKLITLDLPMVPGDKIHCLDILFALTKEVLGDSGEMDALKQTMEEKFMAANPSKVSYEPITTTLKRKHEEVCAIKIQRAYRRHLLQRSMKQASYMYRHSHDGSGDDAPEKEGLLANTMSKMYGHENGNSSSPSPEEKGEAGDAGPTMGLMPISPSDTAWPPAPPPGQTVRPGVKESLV
Method: Electrophysiological Assay:
Cellpreparation: HEK-293 cells stably expressing the hSkM1 isoform of Na^+ channels (generous gift from Dr. A. L. George, Vanderbilt University Medical School) were cultured using standard techniques, as described previously (Verdoorn, T. A, et al., Neuron 4:919-928 (1990)). For electrophysiology, cells were plated onto 35 mm Petri dishes (pre-coated with poly-D-lysine) at a density of 1:40 on the day of re-seeding from confluent cultures. Cells are suitable for recordings for 2-3 days after plating.
Patch-clamp recordings of voltage-sensitive Na^+ currents: Whole-cell voltage-clamp recordings were made using conventional patch-clamp techniques (Hamill et al, Pfluegers Arch. 391:85-100 (1981)) with an Axopatch 200 A amplifier (Axon Instruments, Foster City, Calif.). Recordings were made within 2-3 hours after neuron dissociation. The recording chamber was continuously superfused with the external solution (150 mM NaCl, 5.4 mM KCl, 1.8 mM CaCl2, 1 mM MgCl2, 10 mM HEPES, 10 mM glucose, pH 7.4 (NaOH)) at a speed of about 1 ml/min. Recording pipettes were pulled from thick-walled capillaries (WPI, Sarasota, Fla.) and fire-polished. The pipette resistances ranged from 1 to 3 M.OMEGA. when the pipettes were filled with internal solution containing (in mM): 110 CsF, 10 NaCl, 5 MgCl2, 11 EGTA, 10 HEPES, pH adjusted to 7.4 with CsOH. Osmolality was set with a difference of 15-20 mmol/kg between external and internal solutions (lower inside the cell). Drugs and intervening wash-outs were applied through a linear array of flow pipes (Drummond Microcaps, 2-μl, 64-mm length). Compounds are dissolved in dimethylsulfoxide (DMSO) to make a […] stock solution, which was subsequently diluted into the external solution to give final concentrations of 0.1-100 μM. At the highest (1%) concentration, DMSO inhibited the size of Na^+ current only slightly. Currents were recorded at room temperature (22-25° C.), filtered at 5 kHz with an active 8-pole Bessel filter (Frequency Devices, Haverhill, Mass.), digitized at 10-50-μs intervals, and stored using Digidata 1200 analog/digital interface with Pclamp6/Clampex software (Axon Instruments).Series resistance was cancelled typically by ~75% when necessary. The inhibitory potency of drugs was assessed by measuring reductions in the peak amplitude of Na^+ currents induced by increasing concentrations of compounds tested. Na^+ currents were elicited by stepping membrane voltage from holding potentials over the range -100 mV to -50 mV, to a pulse potential of -10 mV. The test pulse duration was 5-10 msec, repeated at a frequency ≤1 Hz. Concentration-inhibition curves were fitted with equation 1:
I/Icontrol =1/(1+([compound]/IC50)) Eq. 1 […]

[2] = test system: global and focal ischemia; settings: animal models of global and focal ischemia; cited from earlier work
ALS = settings: subset of patients with ALS; cited from earlier work
[3] = HEK-293 cells stably expressing hSkM1

Compound: NC(=O)NNCc1ccc(Oc2ccc(F)cc2)c(F)c1 [1-[3-Fluoro-4-(4-fluorophenoxy)benzyl]semicarbazide]
ED50 ([1]; po, read-out: ED50 against MES): 3.2 mg/kg

inhibition of voltage-gated sodium currents (hSkM1 sodium channels; [3]): dose-dependent inhibition
sensitivity of blocking effect on Na+ currents to the holding voltage (hSkM1 sodium channels; [3]): highly sensitive to the holding voltage
Kd (hSkM1 sodium channels; inactivated sodium channels, read-out: apparent antagonist dissociation constant (Kd) for inactivated sodium channels): ~7.5 µM
potency towards Na+ channels in their resting states (hSkM1 sodium channels; resting states): weak potency
Compound: NC(=O)NNCc1ccc(Oc2ccc(F)cc2)cc1 [1-[4-(4-Fluorophenoxy)benzyl]semicarbazide]
ED50 ([1]; 10 min, iv, 10 min before the test, read-out: ED50 (the dose protecting 50% of animals) against MES): 4.2 mg/kg

Compound: CN1CCN(c2ncc(-c3cc(Cl)cc(Cl)c3Cl)c(N)n2)CC1 [BW619C89]
neuroprotective activity [2]: neuroprotective

Compound: Cc1ccc(-c2nc(C)c(CN3CCN(C(c4ccccc4)c4ccccc4)CC3)[nH]2)cc1 [lifarizine]
neuroprotective activity [2]: neuroprotective

Compound: Nc1nc2ccc(OC(F)(F)F)cc2s1 [riluzole]
survival (ALS): prolong survival
